Laboratory results: ChEMBL document CHEMBL5505995, “Discovery of novel urea derivatives as ferroptosis and autophagy inducer for human colon cancer treatment” (Eur J Med Chem, 2024)
The source made the active and inactive calls. No cut-off for these calls is given here.

Experiments:
Type in all cases: functional, cell-based
HT-29 [1] = experiment: Antiproliferative activity against human HT-29 cells assessed as inhibition of cell growth at 1 to 10 uM incubated for 48 hrs by MTT assay; details: dose 1-10 µM
HepG2 = experiment: Antiproliferative activity against human HepG2 cells assessed as inhibition of cell growth incubated for 48 hrs by MTT assay; details: HepG2, 48 h
HT-29 [2] = experiment: Antiproliferative activity against human HT-29 cells assessed as inhibition of cell growth incubated for 48 hrs by MTT assay; details: HT-29, 48 h
HeLa = experiment: Antiproliferative activity against human HeLa cells assessed as inhibition of cell growth incubated for 48 hrs by MTT assay
K562 = experiment: Antiproliferative activity against human K562 cells assessed as inhibition of cell growth incubated for 48 hrs by MTT assay; details: K562, 48 h
MCF7 = experiment: Antiproliferative activity against human MCF7 cells assessed as inhibition of cell growth incubated for 48 hrs by MTT assay; details: MCF7, 48 h

Structure (SMILES): COc1ccc2c(c1)NCCN2C(=O)Nc1c(C)cccc1C
- Activity (HT-29 [1]): Active

Structure (SMILES): COc1ccc2c(c1)NCCN2C(=O)Nc1ccccc1C
- IC50 (HepG2): 17.6 µM
- IC50 (HT-29 [2]): 26.6 µM
- IC50 (HeLa): 22.7 µM
- Activity (HT-29 [1]): Active
- IC50 (K562): 19.4 µM
- IC50 (MCF7): > 50 µM

Structure (SMILES): COc1ccc2c(c1)NCCN2C(=O)Nc1ccc(C)cc1
- Activity (HT-29 [1]): Active

Structure (SMILES): CCNC(=O)N1CCNc2cc(OC)ccc21
- Activity (HT-29 [1]): Active

Structure (SMILES): COc1ccc2c(c1)NCCN2C(=O)NC(C)(C)C
- IC50 (HepG2): 15.7 µM
- IC50 (HT-29 [2]): 28.4 µM
- IC50 (HeLa): 25.4 µM
- Activity (HT-29 [1]): Active
- IC50 (K562): 28.3 µM
- IC50 (MCF7): 36.4 µM

Structure (SMILES): CC(C)NC(=O)N1CCNc2ccccc21
- Activity (HT-29 [1]): Active

Structure (SMILES): COc1ccc2c(c1)NCCN2C(=O)NCCCCl
- Activity (HT-29 [1]): Active

Structure (SMILES): COC(=O)c1ccc2c(c1)NCCN2C(=O)Nc1ccc(C)cc1
- Activity (HT-29 [1]): inactive

Structure (SMILES): COc1ccc2c(c1)NCCN2C(=O)Nc1ccc(Cl)cc1
- Activity (HT-29 [1]): Active

Structure (SMILES): COc1ccc(NC(=O)N2CCNc3ccccc32)cc1
- Activity (HT-29 [1]): Active

Structure (SMILES): COc1ccc2c(c1)NCCN2C(=O)Nc1ccc(Cl)c(C(F)(F)F)c1
- Activity (HT-29 [1]): Active

Structure (SMILES): COc1ccc2c(c1)NCCN2C(=O)Nc1ccc(N)cc1
- Activity (HT-29 [1]): Active

Structure (SMILES): COc1ccc2c(c1)NCCN2C(=O)Nc1ccccc1OC
- IC50 (HepG2): 43.5 µM
- IC50 (HT-29 [2]): 19.1 µM
- IC50 (HeLa): 11.7 µM
- Activity (HT-29 [1]): Active
- IC50 (K562): 49.1 µM
- IC50 (MCF7): > 50 µM

Structure (SMILES): O=C(NCCCl)N1CCNc2ncccc21
- Activity (HT-29 [1]): inactive

Structure (SMILES): COc1cccc(NC(=O)N2CCNc3cc(OC)ccc32)c1
- Activity (HT-29 [1]): Active

Structure (SMILES): O=C(Nc1cccc2ccccc12)N1CCNc2ccccc21
- Activity (HT-29 [1]): Active

Structure (SMILES): COc1ccc2c(c1)NCCN2C(=O)Nc1ccccc1C(F)(F)F
- IC50 (HepG2): 40.4 µM
- IC50 (HT-29 [2]): 28.6 µM
- IC50 (HeLa): 16.6 µM
- Activity (HT-29 [1]): Active
- IC50 (K562): 34.4 µM
- IC50 (MCF7): 48 µM

Structure (SMILES): COc1ccc(NC(=O)N2CCNc3cc(OC)ccc32)cc1
- Activity (HT-29 [1]): Active

Structure (SMILES): COc1ccc2c(c1)NCCN2C(=O)Nc1cccc2ccccc12
- Activity (HT-29 [1]): inactive

Structure (SMILES): Cc1ccc(NC(=O)N2CCNc3ncccc32)cc1
- Activity (HT-29 [1]): inactive

Structure (SMILES): CNC(=O)c1cc(Oc2ccc(NC(=O)Nc3ccc(Cl)c(C(F)(F)F)c3)cc2)ccn1 [SORAFENIB]
- IC50 (HepG2): 11.2 µM
- IC50 (HT-29 [2]): 3.56 µM
- IC50 (HeLa): 10.3 µM
- IC50 (MCF7): 9.81 µM

Structure (SMILES): Cc1ccc(NC(=O)N2CCNc3ccccc32)cc1
- Activity (HT-29 [1]): Active

Structure (SMILES): COC(=O)c1ccc2c(c1)NCCN2C(=O)Nc1ccc(OC)cc1
- Activity (HT-29 [1]): inactive

Structure (SMILES): COc1ccc(OC)c(NC(=O)N2CCNc3cc(OC)ccc32)c1
- IC50 (HepG2): 20.5 µM
- IC50 (HT-29 [2]): 14.9 µM
- IC50 (HeLa): 6.52 µM
- Activity (HT-29 [1]): Active
- IC50 (K562): 4.57 µM
- IC50 (MCF7): 40.3 µM

Structure (SMILES): COc1ccc2c(c1)NCCN2C(=O)NC1CCCCC1
- Activity (HT-29 [1]): Active

Structure (SMILES): COC(=O)c1ccc([C@H]2c3[nH]c4ccccc4c3C[C@H](C(=O)OC)N2C(=O)CCl)cc1
- IC50 (HT-29 [2]): 3.25 µM

Structure (SMILES): COc1ccccc1NC(=O)N1CCNc2ncccc21
- Activity (HT-29 [1]): inactive

Structure (SMILES): CCOc1ccccc1-n1c(C(C)N2CCN(C(=O)COc3ccc(Cl)cc3)CC2)nc2ccccc2c1=O (stereo not drawn) [ERASTIN]
- IC50 (HT-29 [2]): 20.9 µM

Structure (SMILES): O=C(Nc1ccc(OC(F)(F)F)cc1)N1CCNc2ccccc21
- Activity (HT-29 [1]): Active

Structure (SMILES): COc1ccc2c(c1)NCCN2C(=O)Nc1ccc(OC(F)(F)F)cc1
- Activity (HT-29 [1]): Active
